{"source": "patent EP3833345B1", "about": "“SMALL MOLECULE-INHIBITORS OF 6-PHOSPHOFRUCTO-1-KINASE FOR REDUCING LACTATE GENERATION BY CANCER CELLS” (Kemijski Institut, priority 2018, dated 2020)", "assay_type_in_all_cases": "cell-based", "key": {"COLO 829 cells [1]": {"system": "COLO 829 cells", "test": "cytotoxicity in COLO 829 cells (LDH kit)", "procedure": "(§1) Lactate generation, growth yield and survival under normal and inhibitory conditions of three different tumorigenic cells lines were determined in more detailed measurements. […] Cytotoxicity was measured by the Lactate dehydrogenase (LDH) kit (Roche)."}, "MDA-MB-231 cells [2]": {"system": "MDA-MB-231 cells", "test": "cytotoxicity in MDA-MB-231 cells (LDH kit)", "procedure": "as §1\nInhibitors No. 23, 29, 30 and 31 were tested for preventing lactate generation by the MDA-MB-231 cells."}, "MDA-MB-231 cells [3]": {"system": "MDA-MB-231 cells", "test": "total cell numbers of MDA-MB-231 cells at end of incubation", "conditions": "single addition, different concentrations", "procedure": "(§2) Inhibitors No. 23, 29, 30 and 31 were tested for preventing lactate generation by the MDA-MB-231 cells. […] No significant discrepancies of total cell numbers were observed (Figure 14e) due to the different concentrations of inhibitors in the medium. […] The average percent of dead MDA-MB-231 cells in the control and in the presence of different concentrations of inhibitors were as follows: inh. 23 (2,98±0,2%), inh. 29 (3,37±0,39%), inh. 30 (3,4±0,21%), inh. 31 (6,87±0,44%). Additionally, cytotoxicity of inh. 3 (7,2±0,47%) and 9 (6,59±0,29%) for MDA-MB-231 cells were also determined. No dose dependent decrease of survival was observed by any inhibitor.\n(§3) In MDA-MB-231 calls similar results to those found in Caco-2 cells were observed. […] No significant cytostatic (Figure 17f) or cytotoxic effect of inhibitors could be detected after 92 hours of incubation despite of sequential addition of various concentrations of inhibitors. The following average percentages of dead cells were perceived in the medium without and with inh. 3 (2,05±0,18%), inh. 9 (1,85±0,05%), inh. 23 (2,20±0,15%), inh. 29 (1,54±0,16%) and inh. 30 (2,00±0,18%). No detrimental effects of increased inhibitors concentrations on cell deaths have been observed."}, "COLO 829 cells [4]": {"system": "COLO 829 cells", "test": "lactate excretion by COLO 829 cells", "procedure": "(§4) Preliminary in vivo tests were run by measuring lactate production by three different tumorigenic cell lines. Again, 100 µM concentrations of tested compounds have been added to the medium. For the experiment, the following tumorigenic cells lines originating from different tumours were tested: Caco-2 cells (Figure 10a), originating from colorectal adenoma carcinoma; COLO 829 cells (Figure 10b), isolated from melanoma; and MDA-MB-231 cells (Figure 10c) derived from metastatic phase of mammary/breast cancer. All adherent cell lines were grown in the RPMI 1640 GlutaMAX substrate (Thermo Fisher) supplemented with 10% FBS.\nOn the basis of preliminary results, inhibitors No. 23, 29, 30 and 31 were tested on COLO 829 cells. […] No significant discrepancies of total cell numbers in respect to the control were observed due to the different concentrations of inhibitors in the medium (Figure 13e). The average percent of dead COLO 829 cells in the control and in the presence of different concentrations of inhibitors were as follows: inh. 23 (9,23±0,6%), inh. 29 (9,31±0,73%), inh. 30 (8,27±0,49%), inh. 31 (8,26±0,38%). Additionally, cytotoxicity of inh. 3 (5,01±1,08%) and 9 (3,65±0,78%) for COLO 829 cells were also determined. No dose dependent decrease of survival was observed by any inhibitor.\n(§5) A decrease in inhibitory effectiveness of some compounds was observed after certain period of time (Example 11). […] Therefore, the influence of selected inhibitors was assessed by sequential re-insertion of low concentrations of inhibitors at indicated time points. The inhibitors were first added to the medium 8 hours after the inoculation followed by periodically additions at 24-hour intervals (marked by arrows).\nNo significant cytostatic (Figure 16f) of cytotoxic effect of inhibitors could be detected after 92 hours of incubation despite of sequential addition of various concentrations of inhibitors. The following average percentages of dead cells were perceived in the medium without and media with inh. 3 (1,95±0,15%) inh. 9 (1,70±0,14%), inh. 23 (2,40±0,09%), inh. 29 (1,66±0,25%) and inh. 30 (1,38±0,18%). No detrimental effects of increased inhibitors concentrations on cell deaths have been observed."}, "Caco-2 cells [5]": {"system": "Caco-2 cells", "test": "lactate excretion by Caco-2 cells", "conditions": "single addition, different concentrations (20-80 µM)", "procedure": "as §4, with “Again, 100 µM concentrations of tested compounds have been added to the medium.” left out, “cancer.” for “cancer. All adherent cell lines were grown in the RPMI 1640 GlutaMAX substrate (Thermo Fisher) supplemented with 10% FBS.”\nas §1\nTherefore, the influence of selected inhibitors was assessed by sequential re-insertion of low concentrations of inhibitors at indicated time points. The inhibitors were first added to the medium 8 hours after the inoculation followed by periodically additions at 24-hour intervals (marked by arrows)."}, "MDA-MB-231 cells [6]": {"system": "MDA-MB-231 cells", "test": "lactate excretion by MDA-MB-231 cells", "conditions": "single addition, different concentrations", "procedure": "as §4, §2, §5, §3"}, "Caco-2 cells [7]": {"system": "Caco-2 cells", "test": "cytotoxicity in Caco-2 cells (lactate dehydrogenase (LDH) kit)", "procedure": "as §1"}, "Caco-2 cells [8]": {"system": "Caco-2 cells", "test": "total cell numbers of Caco-2 cells at end of incubation", "conditions": "single addition, end of incubation (92 hours)", "procedure": "as §1"}, "[9]": {"conditions": "sequential addition at 24-hour intervals, 92 hours, average over medium without and with inhibitor"}, "[10]": {"conditions": "single addition, average over control and different concentrations of inhibitor"}}}
{"smiles": "O=C(CCS(=O)(=O)c1ccc(Cl)cc1)Nc1nnc(-c2ccno2)o1", "note": "[Inhibitor No. 29, 3-(4-chlorophenyl)sulfonyl-N-(5-isoxazol-5-yl-1,3,4-oxadiazol-2-yl)propanamide]", "values": [{"measurement": "average percentages of dead cells, COLO 829, sequential re-insertion", "setting": "COLO 829 cells [1]; [9]", "value": "1,66±0,25%"}, {"measurement": "average percent of dead COLO 829 cells", "setting": "COLO 829 cells [1]; [10]", "value": "9,31±0,73%"}, {"measurement": "average percentages of dead cells, MDA-MB-231, sequential re-insertion", "setting": "MDA-MB-231 cells [2]; [9]", "value": "1,54±0,16%"}, {"measurement": "average percent of dead MDA-MB-231 cells", "setting": "MDA-MB-231 cells [2]; [10]", "value": "3,37±0,39%"}, {"measurement": "total cell numbers, MDA-MB-231", "setting": "MDA-MB-231 cells [3]", "value": "dose dependent decrease of cell numbers"}, {"measurement": "lactate formation in COLO 829 cells, sequential re-insertion", "setting": "COLO 829 cells [4]; inhibitor added 8 hours after inoculation, then at 24-hour intervals, low concentrations (from 10 µM)", "value": "slightly weaker inhibitions"}, {"measurement": "lactate excretion by COLO 829 cells", "setting": "COLO 829 cells [4]; single addition, different concentrations", "value": "strongest reductions of lactate excretion"}, {"measurement": "lactate generation by Caco-2 cells", "setting": "Caco-2 cells [5]", "value": "effectively reduced the lactate accumulation in the medium in a dose dependent manner"}, {"measurement": "lactate excretion by MDA-MB-231 cells", "setting": "MDA-MB-231 cells [6]", "value": "dose dependent inhibition of lactate excretion"}, {"measurement": "average percentages of dead cells, Caco-2, sequential re-insertion", "setting": "Caco-2 cells [7]; [9]", "value": "4,57±0,04%"}, {"measurement": "average percent of dead cells, Caco-2", "setting": "Caco-2 cells [7]; [10]", "value": "4,95±0,27%"}, {"measurement": "total cell numbers, Caco-2", "setting": "Caco-2 cells [8]", "value": "minor dose dependent reductions in total cell numbers"}]}
